Experimental data published in patent US8778966B2, “Quinolinone derivatives as PARP and tank inhibitors” (Janssen Pharmaceutica, NV, priority 2007, dated 2014).
Each block holds one compound with its values, some of them ahead of it.

Experiments:
Human PARP-1 enzyme = biological target: T1, Human PARP-1 enzyme (Homo sapiens, UniProt P09874); assay: In vitro Scintillation Proximity Assay (SPA) for PARP-1 inhibitory activity; type: biochemical; conditions: for IC50: read-out: in vitro SPA assay PARP-1 pIC50 (converted)
T1 construct: purchased Trevigen
T1 sequence (P09874 whole entry): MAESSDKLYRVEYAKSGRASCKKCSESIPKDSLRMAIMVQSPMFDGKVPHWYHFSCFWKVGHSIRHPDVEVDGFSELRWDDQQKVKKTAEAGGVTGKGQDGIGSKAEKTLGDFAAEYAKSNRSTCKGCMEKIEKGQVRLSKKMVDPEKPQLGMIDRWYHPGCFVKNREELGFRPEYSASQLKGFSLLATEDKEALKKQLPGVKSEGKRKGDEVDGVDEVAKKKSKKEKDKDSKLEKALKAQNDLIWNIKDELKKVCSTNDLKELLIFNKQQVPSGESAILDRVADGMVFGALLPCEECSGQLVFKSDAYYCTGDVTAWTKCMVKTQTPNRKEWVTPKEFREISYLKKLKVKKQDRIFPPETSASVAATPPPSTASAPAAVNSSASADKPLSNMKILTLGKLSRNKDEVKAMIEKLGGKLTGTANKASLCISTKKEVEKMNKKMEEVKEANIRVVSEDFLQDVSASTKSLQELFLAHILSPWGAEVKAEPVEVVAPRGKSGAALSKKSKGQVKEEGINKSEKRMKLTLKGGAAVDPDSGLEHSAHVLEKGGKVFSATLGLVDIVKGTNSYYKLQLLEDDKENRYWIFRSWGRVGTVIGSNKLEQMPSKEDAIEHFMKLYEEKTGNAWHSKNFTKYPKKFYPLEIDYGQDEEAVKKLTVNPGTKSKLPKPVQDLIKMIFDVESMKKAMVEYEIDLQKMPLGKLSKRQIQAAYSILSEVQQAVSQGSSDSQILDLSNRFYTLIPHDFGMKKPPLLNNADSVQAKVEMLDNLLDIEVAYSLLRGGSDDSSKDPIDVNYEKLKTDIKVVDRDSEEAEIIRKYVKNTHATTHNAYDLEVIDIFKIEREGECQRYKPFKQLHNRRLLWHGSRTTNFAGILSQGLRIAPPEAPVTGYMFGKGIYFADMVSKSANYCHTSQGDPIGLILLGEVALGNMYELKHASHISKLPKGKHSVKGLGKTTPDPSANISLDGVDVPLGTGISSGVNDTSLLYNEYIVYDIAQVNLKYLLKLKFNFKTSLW
Summary of the method: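 SPA assay: nicked-DNA-activated PARP-1 (0.1–0.2 μg/ml) ADP-ribosylates biotinylated histones (2 μg/ml) using [3H]-NAD+, 20 min at RT in Tris pH 8/DTT/MgCl2, stopped with 2 mM NAD+. Blank-subtracted cpm expressed as % control; IC50 by linear interpolation, reported as pIC50 (10−5 to 3×10−9 M tested).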

HCT116 cells = assay: Mitotic arrest assay on HCT116 cells (phospho-histone H3 Ser10); type: cell-based, human; conditions: lowest active dose; for minimal effective concentration: Homo sapiens, HCT-116, HCT116 cells, read-out: Mitotic arrest HCT116 LAD (converted)
Excerpt: Phosphorylation of histone H3 is tightly correlated with chromosome condensation during both mitosis and meiosis. The assay is a cellular immunosorbent assay wherein the sole antibody is labelled with a detectable conjugate. The phospho-histone H3 (ser10) antibody detects endogenous levels of histone H3 only when phosphorylated at serine 10. […] In parallel with antibody detection, the nuclei of the cells are stained with Hoechst 33342 for cell-counting. Cells are detected and analysed using the InCell Analyzer 1000 from GE Healthcare. Since both the antibody-detection as well as the Hoechst-staining are in the nucleus, the dual area object intensity algorithm is used for analysing the wells.
All compounds tested were dissolved in DMSO and further dilutions were made in culture medium. Final DMSO concentrations never exceeded 0.1% (v/v).
HCT116 cells (supplier: ATCC) (human colon carcinoma cell line) were cultivated in Mc Coy's 5 A medium (supplier: Gibco) supplemented with 10% foetal calf serum (FCS), 2 mM L-glutamine and gentamycin at 37° C. in a humidified incubator with 5% CO2.
HCT116 cells were seeded at 20.000 cells per well in a 96 well plate (black/clear bottom, poly-D-lysine coated, supplier Greiner), cultured overnight to adhere to the bottom of the plate and treated with compound for 6 hours at 37° C. in a humidified incubator. After incubation, the medium was removed and cells were fixed using 100 μl/well formaldehyde (Accustain®, Formaline solution 10% neutral buffered, contains 4% formaldehyde w/v, supplier: Sigma) was added. After incubation for 15 minutes at room temperature, the formaldehyde was removed and cells were incubated with methanol (−20° C.) for 15 minutes at room temperature. After incubation, cells were washed once with phosphate-buffered saline (PBS —CaCl2, —MgCl2, suppier: Gibco)/0.05% Tween 20. The anti-phospho-histone H3 (Ser10) Alexa Fluor 488 antibody (supplier: Cell signalling) is used for detection of the cells inmitosis. The antibody was diluted 1/50 in 5% bovine serum albumins (BSA) and 50 μl/well was used for incubation overnight at room temperature in the dark.
A 1/2000 dilution of Hoechtst 33342 (10 mg/ml, supplier: Invitrogen) was made and 100 μl/well was added for at least 30 minutes before acquiring images. The absorbance at dual wavelengths of 360/480 nm was measured using the InCell Analyzer 1000 from GE Healthcare and the results were then analyzed.
For each experiment, controls (containing no drug) and a blank incubation (containing no cells or drugs) were run in parallel. Analysis was done in triplicate. Low cell count wells were invalidated. The blank value was subtracted from all control and sample values and divided by the standard deviation of the measurements. The compounds were considered active when the obtained value (sigma) was >5. Herein the effects of test compounds are expressed as the lowest dose giving a sigma value of >5 (LAD) (see table F-2).

IC50 (Human PARP-1 enzyme): 631 nM
SMILES: C#Cc1cccc(CC(C)(C#N)c2ccc3cc(CC)c(=O)[nH]c3c2)c1 (racemic) [Compound 168]
minimal effective concentration (HCT116 cells): 0.0316 µM

IC50 (Human PARP-1 enzyme): 79.4 nM
SMILES: CCc1cc2ccc(C(C)(C#N)Cc3cccc(C(=O)O)c3)cc2[nH]c1=O (centres unmarked) [Compound 10]
minimal effective concentration (HCT116 cells): 10 µM

IC50 (Human PARP-1 enzyme): 501 nM
SMILES: CCc1cc2ccc(C(C)(C#N)Cc3cccc(C(=O)OC)c3)cc2[nH]c1=O (centres unmarked) [Compound 12]
minimal effective concentration (HCT116 cells): 0.1 µM

IC50 (Human PARP-1 enzyme): 398 nM
SMILES: CCc1cc2ccc(C(C)(C#N)Cc3cccc(C(=O)NC)c3)cc2[nH]c1=O (centres unmarked) [Compound 13]
minimal effective concentration (HCT116 cells): 1 µM

IC50 (Human PARP-1 enzyme): 398 nM
SMILES: CCc1cc2ccc(C(C)(C#N)Cc3cccc(NS(C)(=O)=O)c3)cc2[nH]c1=O (centres unmarked) [Compound 14]
minimal effective concentration (HCT116 cells): 10 µM

IC50 (Human PARP-1 enzyme): 316 nM
SMILES: CCc1cc2ccc(C(C)(C#N)Cc3cccc(N)c3)cc2[nH]c1=O (centres unmarked) [Compound 15]
minimal effective concentration (HCT116 cells): 1 µM

IC50 (Human PARP-1 enzyme): 251 nM
SMILES: CCc1cc2ccc(C(C)(C#N)Cc3cccc(C)c3)cc2[nH]c1=O (centres unmarked) [Compound 107]
minimal effective concentration (HCT116 cells): 0.316 µM

IC50 (Human PARP-1 enzyme): 794 nM
SMILES: CCc1cc2ccc(C(C)(C#N)Cc3cccc(C(F)(F)F)c3)cc2[nH]c1=O (centres unmarked) [Compound 109]
minimal effective concentration (HCT116 cells): 0.316 µM

IC50 (Human PARP-1 enzyme): 794 nM
SMILES: CCc1cc2ccc(C(C)(C#N)Cc3cccc(OC(F)(F)F)c3)cc2[nH]c1=O (centres unmarked) [Compound 110]
minimal effective concentration (HCT116 cells): 0.316 µM

IC50 (Human PARP-1 enzyme): 200 nM
SMILES: CCc1cc2ccc(C(C)(C#N)Cc3cccc(F)c3)cc2[nH]c1=O (centres unmarked) [Compound 112]
minimal effective concentration (HCT116 cells): 0.316 µM

IC50 (Human PARP-1 enzyme): 251 nM
SMILES: CCc1cc2ccc(C(C)(C#N)Cc3cccc(OC)c3)cc2[nH]c1=O (centres unmarked) [Compound 113]
minimal effective concentration (HCT116 cells): 0.316 µM

Further lines, the compound ahead of its results:

SMILES: CCc1cc2ccc(C(C)(C#N)CC3COc4ccccc4O3)cc2[nH]c1=O (single isomer, unassigned) [Compound 48]
in vitro SPA assay PARP-1 pIC50 (Human PARP-1 enzyme): 6.4
Mitotic arrest HCT116 LAD (HCT116 cells; HCT116 cells, the values are: pLAD (−log M lowest active dose)): 6.5

SMILES: CCc1cc2ccc([C@@](C)(C#N)CCOc3ccccc3)cc2[nH]c1=O (single isomer, unassigned) [Compound 150]
IC50 (Human PARP-1 enzyme): 501 nM
minimal effective concentration (HCT116 cells): 0.316 µM

SMILES: Cc1cc2ccc([C@@](C)(C#N)CCOc3ccccc3)cc2[nH]c1=O (single isomer, unassigned) [Compound 164]
IC50 (Human PARP-1 enzyme): 1580 nM
minimal effective concentration (HCT116 cells): 0.1 µM

SMILES: CCc1cc2ccc(C(C)(C#N)Cc3cccc(-c4nc(C)no4)c3)cc2[nH]c1=O (centres unmarked) [Compound 11]
IC50 (Human PARP-1 enzyme): 631 nM
minimal effective concentration (HCT116 cells): 0.316 µM

SMILES: CCc1cc2ccc(C(C)(C#N)Cc3cccc(NC(=O)N4CCOCC4)c3)cc2[nH]c1=O (centres unmarked) [Compound 16]
IC50 (Human PARP-1 enzyme): 158 nM
minimal effective concentration (HCT116 cells): 10 µM

SMILES: CCc1cc2ccc(C(C)(C#N)Cc3ccccc3Br)cc2[nH]c1=O (centres unmarked) [Compound 104]
IC50 (Human PARP-1 enzyme): 631 nM
minimal effective concentration (HCT116 cells): 0.316 µM

SMILES: CCc1cc2ccc(C(C)(C#N)Cc3ccccc3C)cc2[nH]c1=O (centres unmarked) [Compound 105]
IC50 (Human PARP-1 enzyme): 794 nM
minimal effective concentration (HCT116 cells): 0.1 µM

SMILES: CCc1cc2ccc(C(C)(C#N)Cc3ccccc3F)cc2[nH]c1=O (centres unmarked) [Compound 106]
IC50 (Human PARP-1 enzyme): 398 nM
minimal effective concentration (HCT116 cells): 0.1 µM

SMILES: CCc1cc2ccc(C(C)(C#N)Cc3ccc(C(F)(F)F)cc3)cc2[nH]c1=O (centres unmarked) [Compound 108]
IC50 (Human PARP-1 enzyme): 1260 nM
minimal effective concentration (HCT116 cells): 3.16 µM

SMILES: CCc1cc2ccc(C(C)(C#N)Cc3ccc(C#N)cc3)cc2[nH]c1=O (centres unmarked) [Compound 111]
IC50 (Human PARP-1 enzyme): 251 nM
minimal effective concentration (HCT116 cells): 3.16 µM

SMILES: CCc1cc2ccc(C(C)(C#N)Cc3ccc(OC(F)(F)F)cc3)cc2[nH]c1=O (centres unmarked) [Compound 114]
IC50 (Human PARP-1 enzyme): 1000 nM
minimal effective concentration (HCT116 cells): 1 µM

SMILES: CCc1cc2ccc(C(C)(C#N)Cc3ccc(F)cc3)cc2[nH]c1=O (centres unmarked) [Compound 115]
IC50 (Human PARP-1 enzyme): 316 nM
minimal effective concentration (HCT116 cells): 0.316 µM

SMILES: CCc1cc2ccc(C(C)(C#N)Cc3c(F)c(F)c(F)c(F)c3F)cc2[nH]c1=O (centres unmarked) [Compound 116]
IC50 (Human PARP-1 enzyme): 1000 nM
minimal effective concentration (HCT116 cells): 0.1 µM

SMILES: CCc1cc2ccc(C(C)(C#N)Cc3ccc(C)cc3)cc2[nH]c1=O (centres unmarked) [Compound 117]
IC50 (Human PARP-1 enzyme): 398 nM
minimal effective concentration (HCT116 cells): 1 µM
